Values of other authors in US20240165275A1, “STABLE FORMULATIONS OF INDOCYANINE GREEN” (PROVEPHARM LIFE SOLUTIONS, priority 2021, published 2024).

How the values were obtained:
[1] = stored at 4° C. in the dark
[2] = after 10 hours of storage in water and direct light

For `CC1(C)C(/C=C/C=C/C=C/C=C2\N(CCCCS(=O)(=O)[O-])c3ccc4ccccc4c3C2(C)C)=[N+](CCCCS(=O)(=O)[O-])c2ccc3ccccc3c21.[Na+]` [ICG, Indocyanine green], the stability on storage [1] is given as “stable for three days”, the fluorescence intensity lost ([1]; three days) is given as 20% and the “reduction of absorbance at spectral peak” value [2] is given as 10%.
